Measured values as given in PubChem BioAssay AID2060486 (Molecular Pharmacology Branch, DTP, NCI, 2025).

Test system: IGROV1 complex spheroids (HUVEC, MSC), viability % test/control
Assay: Anticancer human tumor IGROV1 cell line growth inhibition [GQUAD];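 note: spheroids exposed to compounds for 7 days before readout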;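 for viability, T/C: 100% = DMSO vehicle control viability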
Conditions: for IC50: curve of first compound; for viability, T/C: stronger effect = lower value
Summary of the method: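 Viability of tumor cells grown as complex spheroids with endothelial and stromal cells, exposed to drug combinations. Top concentration at or near clinical Cmax (else 10 microM), diluted in half-log increments.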

[1] = second compound 0.0316 µM, first compound 0.0316 µM
[2] = second compound 0.0316 µM, first compound 0.1 µM
[3] = second compound 0.0316 µM, first compound 0.316 µM
[4] = second compound 0.0316 µM, first compound 1 µM
[5] = second compound 0.0316 µM, first compound 3.16 µM
[6] = second compound 0.0316 µM, first compound 10 µM
[7] = second compound 0.1 µM, first compound 0.0316 µM
[8] = second compound 0.1 µM, first compound 0.1 µM
[9] = second compound 0.1 µM, first compound 0.316 µM
[10] = second compound 0.1 µM, first compound 1 µM
[11] = second compound 0.1 µM, first compound 3.16 µM
[12] = second compound 0.1 µM, first compound 10 µM
[13] = second compound 0.316 µM, first compound 0.0316 µM
[14] = second compound 0.316 µM, first compound 0.1 µM
[15] = second compound 0.316 µM, first compound 0.316 µM
[16] = second compound 0.316 µM, first compound 1 µM
[17] = second compound 0.316 µM, first compound 3.16 µM
[18] = second compound 0.316 µM, first compound 10 µM
[19] = second compound 1 µM, first compound 0.0316 µM
[20] = second compound 1 µM, first compound 0.1 µM
[21] = second compound 1 µM, first compound 0.316 µM
[22] = second compound 1 µM, first compound 1 µM
[23] = second compound 1 µM, first compound 3.16 µM
[24] = second compound 1 µM, first compound 10 µM
[25] = second compound 3.16 µM, first compound 0.0316 µM
[26] = second compound 3.16 µM, first compound 0.1 µM
[27] = second compound 3.16 µM, first compound 0.316 µM
[28] = second compound 3.16 µM, first compound 1 µM
[29] = second compound 3.16 µM, first compound 3.16 µM
[30] = second compound 3.16 µM, first compound 10 µM
[31] = second compound 10 µM, first compound 0.0316 µM
[32] = second compound 10 µM, first compound 0.1 µM
[33] = second compound 10 µM, first compound 0.316 µM
[34] = second compound 10 µM, first compound 1 µM
[35] = second compound 10 µM, first compound 3.16 µM
[36] = second compound 10 µM, first compound 10 µM

## C#Cc1c(F)ccc2cc(O)cc(-c3ncc4c(N5CC6CCC(C5)N6)nc(OCC56CCCN5CC(F)C6)nc4c3F)c12 (stereo unspecified) + Cc1[nH]c2ccc(F)cc2c1-c1nc2c3cccnc3c3ncccc3c2[nH]1
Second compound 0.0316 µM
  IC50: > 10 µM
Second compound 0.1 µM
  IC50: > 10 µM
Second compound 0.316 µM
  IC50: 3.92 µM
Second compound 1 µM
  IC50: < 0.0316 µM
Second compound 3.16 µM
  IC50: < 0.0316 µM
Second compound 10 µM
  IC50: < 0.0316 µM
[1]
  viability, T/C: 101%
[2]
  viability, T/C: 76.3%
[3]
  viability, T/C: 99.2%
[4]
  viability, T/C: 78.7%
[5]
  viability, T/C: 89.2%
[6]
  viability, T/C: 60.1%
[7]
  viability, T/C: 88.4%
[8]
  viability, T/C: 70.3%
[9]
  viability, T/C: 68.4%
[10]
  viability, T/C: 81.6%
[11]
  viability, T/C: 91.4%
[12]
  viability, T/C: 62.2%
[13]
  viability, T/C: 66.2%
[14]
  viability, T/C: 40%
[15]
  viability, T/C: 69.3%
[16]
  viability, T/C: 58.6%
[17]
  viability, T/C: 58.7%
[18]
  viability, T/C: 12.7%
[19]
  viability, T/C: 2.66%
[20]
  viability, T/C: 3.87%
[21]
  viability, T/C: 2.81%
[22]
  viability, T/C: 3.06%
[23]
  viability, T/C: 2.68%
[24]
  viability, T/C: 1.82%
[25]
  viability, T/C: 3.12%
[26]
  viability, T/C: 3.21%
[27]
  viability, T/C: 3.09%
[28]
  viability, T/C: 2.69%
[29]
  viability, T/C: 2.86%
[30]
  viability, T/C: 1.68%
[31]
  viability, T/C: 2.87%
[32]
  viability, T/C: 3.1%
[33]
  viability, T/C: 3.6%
[34]
  viability, T/C: 2.65%
[35]
  viability, T/C: 2.34%
[36]
  viability, T/C: 1.27%

## CC(=O)O[C@H]1C(=O)[C@@]2(C)[C@H]([C@H](OC(=O)c3ccccc3)[C@]3(O)C[C@H](OC(=O)[C@H](O)[C@@H](NC(=O)c4ccccc4)c4ccccc4)C(C)=C1C3(C)C)[C@]1(OC(C)=O)CO[C@@H]1C[C@@H]2O + Cc1[nH]c2ccc(F)cc2c1-c1nc2c3cccnc3c3ncccc3c2[nH]1
Second compound 0.0316 µM
  IC50: < 0.0316 µM
Second compound 0.1 µM
  IC50: < 0.0316 µM
Second compound 0.316 µM
  IC50: < 0.0316 µM
Second compound 1 µM
  IC50: < 0.0316 µM
Second compound 3.16 µM
  IC50: < 0.0316 µM
Second compound 10 µM
  IC50: < 0.0316 µM
[1]
  viability, T/C: 8.39%
[2]
  viability, T/C: 5.36%
[3]
  viability, T/C: 5.66%
[4]
  viability, T/C: 4.68%
[5]
  viability, T/C: 4.86%
[6]
  viability, T/C: 4.6%
[7]
  viability, T/C: 7.76%
[8]
  viability, T/C: 6.43%
[9]
  viability, T/C: 6.02%
[10]
  viability, T/C: 4.48%
[11]
  viability, T/C: 4.3%
[12]
  viability, T/C: 4.13%
[13]
  viability, T/C: 4.55%
[14]
  viability, T/C: 3.65%
[15]
  viability, T/C: 3.47%
[16]
  viability, T/C: 3.01%
[17]
  viability, T/C: 2.72%
[18]
  viability, T/C: 2.99%
[19]
  viability, T/C: 2.66%
[20]
  viability, T/C: 2.5%
[21]
  viability, T/C: 2.5%
[22]
  viability, T/C: 2.49%
[23]
  viability, T/C: 2.3%
[24]
  viability, T/C: 2.06%
[25]
  viability, T/C: 2.72%
[26]
  viability, T/C: 2.23%
[27]
  viability, T/C: 2.86%
[28]
  viability, T/C: 2.81%
[29]
  viability, T/C: 2.28%
[30]
  viability, T/C: 2.17%
[31]
  viability, T/C: 1.84%
[32]
  viability, T/C: 2.38%
[33]
  viability, T/C: 2.16%
[34]
  viability, T/C: 2.22%
[35]
  viability, T/C: 2.3%
[36]
  viability, T/C: 2.4%

## CCCS(=O)(=O)Nc1ccc(F)c(C(=O)c2c[nH]c3ncc(-c4ccc(Cl)cc4)cc23)c1F + Cc1[nH]c2ccc(F)cc2c1-c1nc2c3cccnc3c3ncccc3c2[nH]1
Second compound 0.0316 µM
  IC50: 4.76 µM
Second compound 0.1 µM
  IC50: 5.34 µM
Second compound 0.316 µM
  IC50: 1.39 µM
Second compound 1 µM
  IC50: < 0.0316 µM
Second compound 3.16 µM
  IC50: < 0.0316 µM
Second compound 10 µM
  IC50: < 0.0316 µM
[1]
  viability, T/C: 97.9%
[2]
  viability, T/C: 95.9%
[3]
  viability, T/C: 98.4%
[4]
  viability, T/C: 59.4%
[5]
  viability, T/C: 80.5%
[6]
  viability, T/C: 19.3%
[7]
  viability, T/C: 104%
[8]
  viability, T/C: 91.6%
[9]
  viability, T/C: 77.5%
[10]
  viability, T/C: 64.8%
[11]
  viability, T/C: 82.1%
[12]
  viability, T/C: 11.7%
[13]
  viability, T/C: 86.6%
[14]
  viability, T/C: 81.1%
[15]
  viability, T/C: 81.4%
[16]
  viability, T/C: 53.2%
[17]
  viability, T/C: 32.3%
[18]
  viability, T/C: 2.23%
[19]
  viability, T/C: 4.32%
[20]
  viability, T/C: 3.48%
[21]
  viability, T/C: 3.41%
[22]
  viability, T/C: 3.93%
[23]
  viability, T/C: 4.28%
[24]
  viability, T/C: 3%
[25]
  viability, T/C: 3.26%
[26]
  viability, T/C: 3.6%
[27]
  viability, T/C: 3.61%
[28]
  viability, T/C: 3.81%
[29]
  viability, T/C: 3.5%
[30]
  viability, T/C: 2.72%
[31]
  viability, T/C: 3.29%
[32]
  viability, T/C: 3.66%
[33]
  viability, T/C: 4.63%
[34]
  viability, T/C: 3.69%
[35]
  viability, T/C: 3.96%
[36]
  viability, T/C: 2.93%
